Experimental findings from ChEMBL document CHEMBL4038272, “Synthesis and biological evaluation of novel podophyllotoxin-NSAIDs conjugates as multifunctional anti-MDR agents against resistant human hepatocellular carcinoma Bel-7402/5-FU cells” (Eur J Med Chem, 2017) are described below.

In one test the test system is Bel-7402. Nature of the test: Antiproliferative activity against human Bel7402 cells after 72 hrs by CCK-8 assay. Type of test: functional, cell-based. The note with it: Bel-7402, 72 h.
Another test concerns Bel7402/5-FU. Nature of the test: Antiproliferative activity against human Bel7402/5-FU cells after 72 hrs by CCK-8 assay. Type of test: functional, cell-based.
Another test concerns L02. Briefly: Antiproliferative activity against human LO2 cells after 72 hrs by CCK-8 assay. The note with it: L02, 72 h. Type of test: cell-based.
A short description of test [1]: Resistant factor, ratio of IC50 for human Bel7402/5-FU cells to IC50 for human Bel7402 cells. Type of test: functional.

Each structure is given as a SMILES string.

Turning to `COc1ccc2c(c1)c(CC(=O)O)c(C)n2C(=O)c1ccc(Cl)cc1` [INDOMETHACIN], the IC50 in the test on Bel-7402, with Bel7402/5-FU and with L02 was above 100 µM throughout.
For the molecule `CC(=O)Oc1ccccc1C(=O)O` [ASPIRIN], the IC50 in the test on Bel-7402, with Bel7402/5-FU and with L02 was above 100 µM in each case.
Regarding `O=c1[nH]cc(F)c(=O)[nH]1` [FLUOROURACIL], the “Ratio IC50” value in test [1] is on record as above 16.83. Further, the concentration for half-maximal inhibition (IC50) in the test with Bel-7402 is 5.94 µM; in the test with Bel7402/5-FU, above 100 µM; in the test with L02, 32.5 µM.
In the case of `CC(C)Cc1ccc(C(C)C(=O)O)cc1` (stereo not drawn) [IBUPROFEN], the IC50 in the test with Bel-7402, in the test with Bel7402/5-FU and with L02 was above 100 µM throughout.
